From US6921770B2 (priority 2000, dated 2005)
Where two headings read alike, the source gives them in different places.

Tested on: rice blast fungi
Assay type: in vivo, Pyricularia grisea

Row | Compound | Inhibiting Ratio (%) (at 250 ppm) | Inhibiting Ratio (%) (at 250 ppm) (hydrobromide)
1 | Br.Cn1c(CC(=O)Nc2ccccc2)csc1=Nc1ccc(F)c(Cl)c1 [Compound 43, 2-(3-chloro-4-fluorophenylimino)-3-methyl-4-(N-phenylcarbamoylmethyl)-1,3-thiazol-4-ine hydrobromide] | 93 | –
2 | Br.Cc1ccc(F)c(N=c2scc(CC(=O)Nc3ccccc3)n2C)c1 [Compound 44, 2-(2-fluoro-5-methylphenylimino)-3-methyl-4-(N-phenylcarbamoylmethyl)-1,3-thiazol-4-ine hydrobromide] | 95 | –
3 | Br.Cn1c(CC(=O)Nc2ccccc2)csc1=Nc1cc(C(F)(F)F)cc(C(F)(F)F)c1 [Compound 45, 2-(3,5-ditrifluoromethylphenylimino)-3-methyl-4-(N-phenylcarbamoylmethyl)-1,3-thiazol-4-ine hydrobromide] | 93 | –
4 | Br.Cc1ccc(NC(=O)Cc2csc(=Nc3ccc(C#N)cc3)n2C)cc1 [Compound 46] | 100 | –
5 | Br.Cc1ccc(NC(=O)Cc2csc(=Nc3ccc(OC(F)(F)F)cc3)n2C)cc1 [Compound 47, 2-(4-trifluoromethoxyphenylimino)-3-methyl-4-[N-(4-methylphenyl)carbamoylmethyl]-1,3-thiazol-4-ine hydrobromide] | 100 | –
6 | Br.Cc1ccc(NC(=O)Cc2csc(=Nc3cccc(F)c3)n2C)cc1 [Compound 48, 2-(3-fluorophenylimino)-3-methyl-4-[N-(4-methylphenyl)carbamoylmethyl]-1,3-thiazol-4-ine hydrobromide] | 100 | –
7 | Br.Cc1ccc(NC(=O)Cc2csc(=Nc3ccc(Cl)cc3Cl)n2C)cc1 [Compound 49, 2-(2,4-dichlorophenylimino)-3-methyl-4-[N-(4-methylphenyl)carbamoylmethyl]-1,3-thiazol-4-ine hydrobromide] | 100 | –
8 | Br.Cc1ccc(NC(=O)Cc2csc(=Nc3ccc(Cl)cc3F)n2C)cc1 [Compound 50, 2-(4-chloro-2-fluorophenylimino)-3-methyl-4-[N-(4-methylphenyl)carbamoylmethyl]-1,3-thiazol-4-ine hydrobromide] | 100 | –
9 | Br.Cc1ccc(NC(=O)Cc2csc(=Nc3ccc(F)c(Cl)c3)n2C)cc1 [Compound 51, 2-(3-chloro-4-fluorophenylimino)-3-methyl-4-[N-(4-methylphenyl)carbamoylmethyl]-1,3-thiazol-4-ine hydrobromide] | 99 | –
10 | Br.Cc1ccc(NC(=O)Cc2csc(=Nc3cc(C)ccc3F)n2C)cc1 [Compound 52, 2-(2-fluoro-5-methylphenylimino)-3-methyl-4-[N-(4-methylphenyl)carbamoylmethyl]-1,3-thiazol-4-ine hydrobromide] | 99 | –
11 | Br.Cc1ccc(NC(=O)Cc2csc(=Nc3ccc(Cl)c(C(F)(F)F)c3)n2C)cc1 [Compound 53, 2-(4-chloro-3-trifluoromethylphenylimino)-3-methyl-4-[N-(4-methylphenyl)carbamoylmethyl]-1,3-thiazol-4-ine hydrobromide] | 99 | –
12 | Br.Cc1ccc(NC(=O)Cc2csc(=Nc3cc(C(F)(F)F)cc(C(F)(F)F)c3)n2C)cc1 [Compound 54, 2-(3,5-ditrifluoromethylphenylimino)-3-methyl-4-[N-(4-methylphenyl)carbamoylmethyl]-1,3-thiazol-4-ine hydrobromide] | 96 | –
13 | Br.Cc1ccc(NC(=O)Cc2csc(=Nc3ccc([N+](=O)[O-])cc3F)n2C)cc1 [Compound 55, 2-(2-fluoro-4-nitrophenylimino)-3-methyl-4-[N-(4-methylphenyl)carbamoylmethyl]-1,3-thiazol-4-ine hydrobromide] | 96 | –
14 | Br.CCCCc1ccc(N=c2scc(CC(=O)Nc3cccc(Cl)c3)n2C)cc1 [Compound 56, 2-[4-(n-butyl)phenylimino]-3-methyl-4-[N-(3-chlorophenyl)carbamoylmethyl]-1,3-thiazol-4-ine hydrobromide] | 96 | –
15 | Br.Cn1c(CC(=O)Nc2cccc(Cl)c2)csc1=Nc1ccc(C#N)cc1 [Compound 57, 2-(4-cyanophenylimino)-3-methyl-4-[N-(3-chlorophenyl)carbamoylmethyl]-1,3-thiazol-4-ine hydrobromide] | 96 | –
16 | Br.Cn1c(CC(=O)Nc2cccc(Cl)c2)csc1=Nc1ccc(OC(F)(F)F)cc1 [Compound 58, 2-(4-trifluoromethoxyphenylimino)-3-methyl-4-[N-(3-chlorophenyl)carbamoylmethyl]-1,3-thiazol-4-ine hydrobromide] | 96 | –
17 | Br.Cn1c(CC(=O)Nc2cccc(Cl)c2)csc1=Nc1cccc(F)c1 [Compound 59, 2-(3-fluorophenylimino)-3-methyl-4-[N-(3-chlorophenyl)carbamoylmethyl]-1,3-thiazoyl-4-ine hydrobromide] | 96 | –
18 | Br.Cc1cc(Cl)ccc1N=c1scc(CC(=O)Nc2cccc(Cl)c2)n1C [Compound 61, 2-(4-chloro-2-methylphenylimino)-3-methyl-4-[N-(3-chlorophenyl)carbamoylmethyl]-1,3-thiazol-4-ine hydrobromide] | – | 100

Row | Compound | Inhibiting Ratio (%) (at 250 ppm) | Inhibiting Ratio (%) (at 250 ppm) (hydrobromide)
19 | Br.Cc1ccc(N=c2scc(CC(=O)Nc3cccc(Cl)c3)n2C)cc1Cl [Compound 62, 2-(3-chloro-4-methylphenylimino)-3-methyl-4-[N-(3-chlorophenyl)carbamoylmethyl]-1,3-thiazol-4-ine hydrobromide] | 100 | –
20 | Br.Cc1cc(Cl)ccc1N=c1scc(CC(=O)Nc2cccc(Cl)c2)n1C [Compound 63, 2-(4-chloro-2-methylphenylimino)-3-methyl-4-[N-(3-chlorophenyl)carbamoylmethyl]-1,3-thiazol-4-ine hydrobromide] | – | 96
21 | Br.COc1ccccc1N=c1scc(CC(=O)Nc2cccc(C(F)(F)F)c2)n1C [Compound 65, 2-(2-methoxyphenylimino)-3-methyl-4-[N-(3-trifluoromethylphenyl)carbamoylmethyl]-1,3-thiazol-4-ine hydrobromide] | 98 | –
22 | Br.Cn1c(CC(=O)Nc2cccc(Cl)c2)csc1=Nc1ccc(Cl)cc1F [Compound 66, 2-(4-chloro-2-fluorophenylimino)-3-methyl-4-[N-(3-chlorophenyl)carbamoylmethyl]-1,3-thiazol-4-ine hydrobromide] | 96 | –
23 | Br.Cc1ccc(N=c2scc(CC(=O)Nc3cccc(Cl)c3)n2C)c(F)c1 [Compound 67, 2-(2-fluoro-4-methylphenylimino)-3-methyl-4-[N-(3-chlorophenyl)carbamoylmethyl]-1,3-thiazol-4-ine hydrobromide] | 100 | –
24 | Br.Cn1c(CC(=O)Nc2cccc(Cl)c2)csc1=Nc1ccc(F)cc1F [Compound 68, 2-(2,4-difluorophenylimino)-3-methyl-4-[N-(3-chlorophenyl)carbamoylmethyl]-1,3-thiazol-4-ine hydrobromide] | 95 | –
25 | Br.CC(C)Oc1cc(N=c2scc(CC(=O)Nc3ccccc3)n2C)c(F)cc1Cl [Compound 69, 2-(4-chloro-2-fluoro-5-isoproxyphenylimino)-3-methyl-4-(N-phenylcarbamoylmethyl)-1,3-thiazol-4-ine hydrobromide] | 96 | –
26 | Br.CC(C)=CCOc1cc(N=c2scc(CC(=O)Nc3ccccc3)n2C)c(F)cc1Cl [Compound 70, 2-(4-chloro-2-fluoro-5-(3,3,-dimethylallyloxy)phenylimino)-3-methyl-4-(N-phenylcarbamoylmethyl)-1,3-thiazol-4-ine hydrobromide] | 96 | –
27 | COc1ccc(N=c2scc(CC(=O)Nc3ccccc3F)n2C)cc1.Cl [Compound 78, 2-(4-methoxyphenylimino)-3-methyl-4-[N-(2-fluorophenyl)carbamoylmethyl]-1,3-thiazol-4-ine hydrochloride] | 91 | –
28 | Cl.Cn1c(CC(=O)Nc2ccccc2F)csc1=Nc1ccc(OC(F)(F)F)cc1 [Compound 79, 2-(4-trifluoromethoxyphenylimino)-3-methyl-4-[N-(2-fluorophenyl)carbamoylmethyl]-1,3-thiazol-4-ine hydrochloride] | 90 | –
29 | Cl.Cn1c(CC(=O)Nc2ccccc2F)csc1=Nc1ccccc1F [Compound 89, 2-(2-fluorophenylimino)-3-methyl-4-[N-(2-fluorophenyl)carbamoylmethyl]-1,3-thiazol-4-ine hydrochloride] | 83 | –
30 | Cl.Cn1c(CC(=O)Nc2ccccc2F)csc1=Nc1cccc(Cl)c1 [Compound 90, 2-(3-chlorophenylimino)-3-methyl-4-[N-(2-fluoro)phenylcarbamoylmethyl]-1,3-thiazol-4-ine hydrochloride] | 91 | –
31 | Cl.Cn1c(CC(=O)Nc2ccc(Cl)cc2)csc1=Nc1ccc(C(F)(F)F)cc1 [Compound 98, 2-(4-trifluoromethylphenylimino)-3-methyl-4-[N-(4-chlorophenyl)carbamoylmethyl]-1,3-thiazol-4-ine hydrochloride] | 96 | –
32 | COc1ccc(NC(=O)Cc2csc(=Nc3cc(Cl)cc(Cl)c3)n2C)cc1.Cl [Compound 102, 2-(3,5-dichlorophenylimino)-3-methyl-4-[N-(4-methoxyphenyl)carbamoylmethyl]-1,3-thiazol-4-ine hydrochloride] | 93 | –
33 | COc1ccc(NC(=O)Cc2csc(=Nc3ccc(Cl)cc3)n2C)cc1.Cl [Compound 104, 2-(4-chlorophenylimino)-3-methyl-4-[N-(4-methoxyphenyl)carbamoylmethyl]-1,3-thiazol-4-ine hydrochloride] | 93 | –
34 | CC(C)Oc1ccc(N=c2scc(CC(=O)Nc3ccccc3F)n2C)cc1.Cl [Compound 105, 2-(4-isopropoxyphenylimino)-3-methyl-4-[N-(2-fluorophenyl)carbamoylmethyl]-1,3-thiazol-4-ine hydrochloride] | 90 | –
35 | Cl.Cn1c(CC(=O)Nc2ccc(OC(F)(F)F)cc2)csc1=Nc1ccc(OC(F)(F)F)cc1 [Compound 108, 2-(4-trifluoromethoxyphenylimino)-3-methyl-4-[N-(4-trifluoromethoxyphenyl)carbamoylmethyl]-1,3-thiazol-4-ine hydrochloride] | 91 | –
